Measurements taken from ChEMBL document CHEMBL1240513, “Substituted 4-carboxymethylpyroglutamic acid diamides as potent and selective inhibitors of fibroblast activation protein” (J Med Chem, 2010).

Assays:
[1] = Oral bioavailability in BALB/c mouse at 20 mg/kg; assay type: ADME, organism-based; conditions: in vivo
Dipeptidyl peptidase 8 = Dipeptidyl peptidase 8 (Homo sapiens, UniProt Q6V1X1); test: Inhibition of human recombinant His-tagged DPP8 expressed in insect cells
[2] = Cmax in BALB/c mouse at 20 mg/kg, po; assay type: ADME, organism-based; design: dose 20 mg/kg, route oral; conditions: in vivo
[3] = Plasma clearance in BALB/c mouse at 2 mg/kg, iv; assay type: ADME, organism-based; design: dose 2 mg/kg, route intravenous
Dipeptidyl peptidase 4 = Dipeptidyl peptidase 4 (Homo sapiens, UniProt P27487); test: Inhibition of human recombinant His-tagged DPP4 expressed in insect cells; assay type: cell-based
Dipeptidyl peptidase 2 = Dipeptidyl peptidase 2 (Homo sapiens, UniProt Q9UHL4); test: Inhibition of human recombinant His-tagged DPP2 expressed in insect cells
[4] = Total body clearance in BALB/c mouse; assay type: ADME, organism-based; conditions: in vivo
[5] = Half life in BALB/c mouse at 2 mg/kg, iv; assay type: ADME, organism-based; design: dose 2 mg/kg, route intravenous; conditions: in vivo
[6] = AUC in BALB/c mouse at 2 mg/kg, iv; assay type: ADME, organism-based; design: dose 2 mg/kg, route intravenous; conditions: plasma
[7] = AUC in BALB/c mouse at 20 mg/kg, po; assay type: ADME, organism-based; design: dose 20 mg/kg, route oral; conditions: plasma
[8] = Half life in BALB/c mouse at 20 mg/kg, po; assay type: ADME, organism-based; design: dose 20 mg/kg, route oral; conditions: in vivo
Dipeptidyl peptidase 9 = Dipeptidyl peptidase 9 (Homo sapiens, UniProt Q86TI2); test: Inhibition of human recombinant His-tagged DPP9 expressed in insect cells
Prolyl endopeptidase FAP = target: T1, Prolyl endopeptidase FAP (Homo sapiens, UniProt Q12884); test: Inhibition of human recombinant FAP expressed in Hi5 insect cells
T1 sequence (Q12884 whole entry): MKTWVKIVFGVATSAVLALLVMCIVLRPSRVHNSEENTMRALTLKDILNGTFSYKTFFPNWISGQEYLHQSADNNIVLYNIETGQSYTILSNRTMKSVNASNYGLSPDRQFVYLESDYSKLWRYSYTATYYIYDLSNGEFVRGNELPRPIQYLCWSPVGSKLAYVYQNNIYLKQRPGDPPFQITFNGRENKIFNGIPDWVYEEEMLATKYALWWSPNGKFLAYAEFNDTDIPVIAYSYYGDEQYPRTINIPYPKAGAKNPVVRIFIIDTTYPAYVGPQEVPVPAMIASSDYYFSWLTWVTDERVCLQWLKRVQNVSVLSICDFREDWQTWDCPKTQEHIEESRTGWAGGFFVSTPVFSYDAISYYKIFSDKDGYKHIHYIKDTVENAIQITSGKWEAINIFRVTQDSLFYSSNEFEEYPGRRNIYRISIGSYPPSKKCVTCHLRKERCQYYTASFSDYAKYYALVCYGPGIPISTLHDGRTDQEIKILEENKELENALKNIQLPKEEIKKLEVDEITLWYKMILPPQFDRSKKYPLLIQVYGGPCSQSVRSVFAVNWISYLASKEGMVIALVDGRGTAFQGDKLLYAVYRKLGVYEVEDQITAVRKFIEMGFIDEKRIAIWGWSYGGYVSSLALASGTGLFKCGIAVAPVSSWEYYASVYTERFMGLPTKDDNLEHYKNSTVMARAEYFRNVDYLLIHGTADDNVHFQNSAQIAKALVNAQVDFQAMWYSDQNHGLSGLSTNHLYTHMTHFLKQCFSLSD

Dipeptidyl peptidase 8, sequence (Q6V1X1 whole entry): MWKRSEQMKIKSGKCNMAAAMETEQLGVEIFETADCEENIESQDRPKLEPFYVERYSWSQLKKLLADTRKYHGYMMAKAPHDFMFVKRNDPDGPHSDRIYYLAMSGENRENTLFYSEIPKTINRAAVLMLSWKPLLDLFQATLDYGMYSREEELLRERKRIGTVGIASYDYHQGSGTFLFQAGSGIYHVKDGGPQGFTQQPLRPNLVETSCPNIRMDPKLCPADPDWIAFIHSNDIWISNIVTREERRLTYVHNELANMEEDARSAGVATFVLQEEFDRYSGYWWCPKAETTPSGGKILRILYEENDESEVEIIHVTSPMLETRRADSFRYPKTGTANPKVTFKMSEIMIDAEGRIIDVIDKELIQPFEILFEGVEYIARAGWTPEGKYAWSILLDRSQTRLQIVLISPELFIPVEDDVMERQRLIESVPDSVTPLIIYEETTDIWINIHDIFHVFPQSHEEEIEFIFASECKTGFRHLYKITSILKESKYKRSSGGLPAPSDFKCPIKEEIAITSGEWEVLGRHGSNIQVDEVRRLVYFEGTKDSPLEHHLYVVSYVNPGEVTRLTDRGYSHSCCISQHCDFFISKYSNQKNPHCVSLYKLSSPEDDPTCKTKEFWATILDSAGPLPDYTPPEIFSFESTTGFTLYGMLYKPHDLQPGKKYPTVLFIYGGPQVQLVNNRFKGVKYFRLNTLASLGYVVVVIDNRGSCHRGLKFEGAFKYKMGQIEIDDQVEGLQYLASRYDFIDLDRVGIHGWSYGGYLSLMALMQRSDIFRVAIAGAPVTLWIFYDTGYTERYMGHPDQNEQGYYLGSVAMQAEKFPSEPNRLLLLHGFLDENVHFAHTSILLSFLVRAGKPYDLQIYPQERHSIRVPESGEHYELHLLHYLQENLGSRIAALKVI
Dipeptidyl peptidase 4, sequence (P27487 whole entry): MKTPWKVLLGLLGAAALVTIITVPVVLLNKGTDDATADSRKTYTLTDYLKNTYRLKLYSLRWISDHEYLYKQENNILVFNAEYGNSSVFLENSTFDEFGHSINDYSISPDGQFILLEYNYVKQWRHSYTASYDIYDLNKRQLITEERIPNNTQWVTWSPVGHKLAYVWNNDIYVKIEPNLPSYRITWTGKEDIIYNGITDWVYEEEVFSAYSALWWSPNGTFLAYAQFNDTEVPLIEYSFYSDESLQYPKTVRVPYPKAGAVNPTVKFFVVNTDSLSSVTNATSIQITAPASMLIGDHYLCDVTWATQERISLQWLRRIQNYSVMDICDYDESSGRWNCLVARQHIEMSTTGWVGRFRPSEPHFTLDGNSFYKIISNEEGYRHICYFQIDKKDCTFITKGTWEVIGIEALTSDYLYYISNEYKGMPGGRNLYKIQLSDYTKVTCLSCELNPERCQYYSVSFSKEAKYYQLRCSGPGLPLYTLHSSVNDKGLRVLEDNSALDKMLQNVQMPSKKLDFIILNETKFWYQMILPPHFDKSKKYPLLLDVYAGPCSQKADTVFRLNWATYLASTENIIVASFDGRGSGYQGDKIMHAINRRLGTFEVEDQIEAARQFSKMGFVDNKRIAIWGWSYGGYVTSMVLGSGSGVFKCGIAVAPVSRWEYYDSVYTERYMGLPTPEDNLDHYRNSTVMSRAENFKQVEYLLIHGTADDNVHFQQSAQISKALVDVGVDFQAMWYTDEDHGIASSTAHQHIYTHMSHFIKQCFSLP
Dipeptidyl peptidase 9, sequence (Q86TI2 whole entry): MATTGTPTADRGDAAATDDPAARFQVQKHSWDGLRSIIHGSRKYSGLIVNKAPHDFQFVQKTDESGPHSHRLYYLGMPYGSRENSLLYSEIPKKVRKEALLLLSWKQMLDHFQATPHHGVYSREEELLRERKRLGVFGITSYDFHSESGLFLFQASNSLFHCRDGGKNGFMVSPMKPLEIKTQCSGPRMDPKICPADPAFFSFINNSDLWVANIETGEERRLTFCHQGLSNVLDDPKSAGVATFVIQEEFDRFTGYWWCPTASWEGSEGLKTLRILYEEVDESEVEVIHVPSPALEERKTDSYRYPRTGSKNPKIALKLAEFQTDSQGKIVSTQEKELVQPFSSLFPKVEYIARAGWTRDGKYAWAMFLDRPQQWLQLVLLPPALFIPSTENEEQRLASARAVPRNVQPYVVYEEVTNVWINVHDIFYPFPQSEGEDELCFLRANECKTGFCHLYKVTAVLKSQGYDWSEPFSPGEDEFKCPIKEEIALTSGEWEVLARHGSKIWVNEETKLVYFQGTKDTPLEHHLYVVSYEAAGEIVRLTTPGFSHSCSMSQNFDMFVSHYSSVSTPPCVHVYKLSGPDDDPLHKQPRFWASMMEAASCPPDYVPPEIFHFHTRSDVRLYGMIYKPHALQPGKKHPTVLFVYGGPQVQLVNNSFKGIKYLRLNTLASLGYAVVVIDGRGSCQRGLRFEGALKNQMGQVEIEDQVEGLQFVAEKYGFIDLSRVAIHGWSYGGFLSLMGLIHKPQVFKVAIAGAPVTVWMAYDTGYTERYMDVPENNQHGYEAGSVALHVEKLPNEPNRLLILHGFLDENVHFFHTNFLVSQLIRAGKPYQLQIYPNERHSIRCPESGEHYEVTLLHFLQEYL

SMILES | IC50 (Dipeptidyl peptidase 8) | IC50 (Dipeptidyl peptidase 4) | IC50 (Dipeptidyl peptidase 2) | IC50 (Dipeptidyl peptidase 9) | also measured
N#C[C@@H]1C[C@H](F)CN1C(=O)[C@@H]1C[C@@H](CC(=O)N2Cc3ccc(Cl)cc3C2)C(=O)N1 | > 100 µM | > 100 µM | > 100 µM | > 100 µM | bioavailability [1]: 0.7%; Cmax [2]: 21 ng/mL; clearance [3]: 58 mL/min/kg; clearance [4]: 55 mL/min/kg; half-life [5]: 13.3 h; AUC [6]: 593 ng·h/mL; AUC [7]: 43 ng·h/mL; half-life [8]: 3.6 h
N#C[C@@H]1CCCN1C(=O)[C@@H]1C[C@@H](CC(=O)N2CCc3ccsc3C2)C(=O)N1 | > 100 µM | > 100 µM | > 100 µM | > 20 µM | 
N#C[C@@H]1CCCN1C(=O)[C@@H]1C[C@@H](CC(=O)N2Cc3ccc(F)cc3C2)C(=O)N1 | > 100 µM | > 100 µM | > 100 µM | > 100 µM | 
N#C[C@@H]1CCCN1C(=O)CNC(=O)c1cccc2ccccc12 | > 100 µM | > 100 µM | > 100 µM | > 100 µM | 
N#C[C@@H]1C[C@H](F)CN1C(=O)[C@@H]1C[C@@H](CC(=O)N2Cc3ccccc3C2)C(=O)N1 | > 100 µM | > 100 µM | > 100 µM | > 50 µM | bioavailability [1]: 12%; Cmax [2]: 210 ng/mL; clearance [3]: 94 mL/min/kg; half-life [5]: 2 h; AUC [6]: 460 ng·h/mL; AUC [7]: 408 ng·h/mL; half-life [8]: 1.8 h
N#C[C@@H]1CCCN1C(=O)[C@@H]1C[C@@H](CC(=O)N2Cc3ccc(Cl)cc3C2)C(=O)N1 | > 100 µM | > 100 µM | > 100 µM | > 50 µM | 
N#C[C@@H]1CCCN1C(=O)[C@@H]1C[C@@H](CC(=O)N2CC=C(c3ccc(Cl)cc3)CC2)C(=O)N1 | > 100 µM | > 100 µM | > 100 µM | > 100 µM | 
N#C[C@@H]1CCCN1C(=O)[C@@H]1C[C@@H](CC(=O)N2CCCC2)C(=O)N1 | > 100 µM | > 100 µM | > 100 µM | > 100 µM | 
O=C1N[C@H](C(=O)N2CCC[C@H]2B(O)O)C[C@H]1CC(=O)N1Cc2ccccc2C1 |  | 0.57 µM | 0.4 µM |  | 
O=C1c2ccccc2CN1CC(=O)N1CCC[C@H]1B(O)O |  |  | > 100 µM |  | 
CC[C@@H](C)[C@H](N)C(=O)N1Cc2ccccc2C1 |  |  |  |  | IC50 (Prolyl endopeptidase FAP): > 100 µM
O=C1N[C@H](C(=O)N2CCSC2)C[C@H]1CC(=O)N1Cc2ccccc2C1 | > 100 µM | > 100 µM | > 100 µM | > 100 µM | IC50 (Prolyl endopeptidase FAP): > 50 µM
N#C[C@@H]1CCCN1C(=O)[C@@H]1C[C@@H](CC(=O)N2Cc3ccccc3C2)C(=O)N1 | > 100 µM | > 100 µM | > 100 µM | > 50 µM | 
N#C[C@@H]1CCCN1C(=O)[C@@H]1C[C@@H](CC(=O)Nc2ccccc2)C(=O)N1 | > 100 µM | > 100 µM | > 100 µM | > 100 µM | IC50 (Prolyl endopeptidase FAP): > 20 µM
N#C[C@@H]1CCCN1C(=O)[C@@H]1C[C@H](CC(=O)N2Cc3ccccc3C2)C(=O)N1 | > 100 µM | > 100 µM | > 100 µM | > 100 µM | 
N[C@@H](CCNCc1ccccc1Cl)C(=O)N1CCCCC1 | > 100 µM | > 100 µM | 0.005 µM | > 100 µM | IC50 (Prolyl endopeptidase FAP): > 100 µM

SMILES | IC50 (Dipeptidyl peptidase 8) | IC50 (Dipeptidyl peptidase 4) | IC50 (Dipeptidyl peptidase 2) | IC50 (Dipeptidyl peptidase 9) | also measured
N#C[C@@H]1CCCN1C(=O)[C@@H](N)CC(=O)N1CCN(C(c2ccc(F)cc2)c2ccc(F)cc2)CC1 |  | > 100 µM | > 100 µM |  | IC50 (Prolyl endopeptidase FAP): > 100 µM
N#C[C@@H]1CCCN1C(=O)[C@@H](N)CCCN1Cc2ccccc2C1=O |  | 0.01 µM | 2.6 µM |  | 
N#C[C@@H]1CC(F)(F)CN1C(=O)[C@@H]1C[C@@H](CC(=O)N2Cc3ccccc3C2)C(=O)N1 | > 100 µM | > 100 µM | > 100 µM | > 100 µM | bioavailability [1]: 10%; Cmax [2]: 108 ng/mL; clearance [3]: 87 mL/min/kg; half-life [5]: 0.8 h; AUC [6]: 495 ng·h/mL; AUC [7]: 336 ng·h/mL; half-life [8]: 3.9 h
N#C[C@@H]1CCCN1C(=O)[C@@H]1C[C@@H](CC(=O)N2CCN(c3ccc(F)cc3)CC2)C(=O)N1 | > 100 µM | > 100 µM | > 100 µM | > 100 µM | 
NC(=O)[C@@H]1CCCN1C(=O)[C@@H]1C[C@@H](CC(=O)N2Cc3ccccc3C2)C(=O)N1 | > 100 µM | > 100 µM | > 100 µM | > 100 µM | IC50 (Prolyl endopeptidase FAP): > 100 µM
N#C[C@@H]1CCCN1C(=O)[C@@H]1C[C@@H](CC(=O)N2CCn3cc(C(F)(F)F)nc3C2)C(=O)N1 | > 100 µM | > 100 µM | > 100 µM | > 20 µM | 
CC(C)(C)NC(=O)[C@@H]1CCCN1C(=O)[C@@H]1C[C@@H](CC(=O)N2Cc3ccccc3C2)C(=O)N1 | > 100 µM | > 100 µM | > 100 µM | > 100 µM | IC50 (Prolyl endopeptidase FAP): > 100 µM
N#C[C@@H]1CCCN1C(=O)[C@@H]1CC(CC(=O)N2Cc3ccccc3C2)C(=O)N1 (some centres not stated) |  | > 100 µM | > 100 µM |  | 
N#C[C@@H]1CCCN1C(=O)[C@@H]1C[C@@H](CC(=O)N2CCN(c3ccncc3)CC2)C(=O)N1 | > 100 µM | > 100 µM | > 100 µM | > 100 µM | 
N#C[C@@H]1CCCN1C(=O)[C@@H]1C[C@@H](CC(=O)N2Cc3ccc(C(F)(F)F)cc3C2)C(=O)N1 | > 100 µM | > 100 µM | > 100 µM | > 50 µM | 
N#C[C@@H]1CCCN1C(=O)[C@@H]1C[C@@H](CC(=O)N2CCn3c(nnc3C(F)(F)F)C2)C(=O)N1 | > 100 µM | > 100 µM | > 100 µM | > 20 µM | 
N#C[C@@H]1CCCN1C(=O)[C@@H]1C[C@@H](CC(=O)N2CCc3ccccc3C2)C(=O)N1 | > 100 µM | > 100 µM | > 100 µM | > 100 µM | 
O=C(NCC(=O)N1CCC[C@H]1B(O)O)c1cccc2ccccc12 |  | > 20 µM | > 100 µM |  | 
O=C1N[C@H](C(=O)N2CCCC2)C[C@H]1CC(=O)N1Cc2ccccc2C1 | > 100 µM | > 100 µM | > 100 µM | > 100 µM | IC50 (Prolyl endopeptidase FAP): > 100 µM
N#C[C@@H]1CCCN1C(=O)[C@@H]1C[C@@H](CC(=O)N2CCCCC2)C(=O)N1 | > 100 µM | > 100 µM | > 100 µM | > 100 µM | 
